# Laboratory results: patent US20260217712A1, “SOLID STATE FORMS OF MNK INHIBITORS” (4E Therapeutics, Inc., priority 2023, published 2026)
# “Also recorded” adds a separate entry of the source. Where a name gives a salt, the structure may show the parent alone. Read-outs that look alike come from different tables or passages of the source.
# Tests used:
# Assay type in all cases: physicochemical
# [1] = Static storage at 40° C./75% RH, XRPD and HPLC post storage; details: 7 days
# [2] = as above; details: for stability to storage at 40° C./75% RH (in words): 40° C./75% RH (elevated temperature and humidity); for HPLC purity post storage at 40° C./75% RH / XRPD post storage at 40° C./75% RH: 7 days
# Experimental: Purity analysis was performed on an Agilent HP1100/Infinity II 1260 series system equipped with a diode array detector and using OpenLAB software. The full method details are provided below:
# Poorly Crystalline Structure (I) (from Lot A, Free Form Pattern 1, 30 mg) was dissolved in 50 volumes of THF:Water 9:1 at 60° C. in 13 vials, stirring at 500 RPM (small amount of debris present). The solutions were then treated with 1.1 molar equivalents (90/180 μL) of selected counter-ions (Table 7). The resulting solutions were then cooled down to 5° C. at 0.1° C./min and were held at this temperature for 2 days. The suspensions were filtered and dried under suction for 20 min. The gummed sample was left with the cap off to promote crystallization. All solids obtained were initially analyzed by XRPD and stored in glass HPLC vials for subsequent analysis.
# Any solids obtained were analyzed by XRPD, ^1H NMR, HPLC, TGA, DSC, XRPD post storage at 40° C./75% RH after 7 days & IC if necessary. Additional microscopy techniques (PLM & HSM) were used to complement the above analysis where appropriate.
# [3] = Drying / standing under ambient conditions, XRPD; details: for XRPD (Dry): after drying under ambient conditions overnight
# Experimental: Structure (I) (Sample 28-2, 30 mg, Poorly Crystalline Pattern 3) was wetted with solvent (300 μL, 10 vol) according to Table 30 and put into a shaker at 50° C. for 6 days. The suspensions were isolated using filter cartridges and positive pressure. A XRPD pattern was collected for each sample. […] This characterization is presented and discussed in Examples detailed herein. (see, e.g., FIG. 75)
# [4] = Initial solubility testing in solvents; details: organic solvent or mixture, thermodynamic from solid
# Experimental: Structure (I) (20 mg) from Lot A (free form Pattern 1) was charged into HPLC vials, treated with solvent, 10 volumes at a time, until the material fully dissolved or a maximum of 50 volumes had been added. Once 50 volumes was reached without dissolution, the temperature was increased to 50° C. To each suspension, 1.1 molar equiv. (60 μL) of HCl (1M in THF) was added, stirred for 5 min, and slowly cooled to 5° C. at 0.1° C./min and held at that temperature overnight. All solids were then isolated by filtration through PTFE frits and dried under suction for 20 min. The samples were analyzed by XRPD.
compound,measurement,setting,value
Cc1cc(Nc2cc(N)ncn2)c(=O)n2c1C(=O)NC21CCC2(CC2)CC1 [HCl Pattern 1],XRPD post storage at 40° C./75% RH,[1]; listed as 22-1,Unchanged
same,stability to storage at 40° C./75% RH (in words),[2]; listed as Chloride Pattern 1,remained stable by XRPD & HPLC
same,HPLC purity post storage at 40° C./75% RH,[2]; listed as 22-1,99.3%
Cc1cc(Nc2cc(N)ncn2)c(=O)n2c1C(=O)NC21CCC2(CC2)CC1 [HCl Patterns 1 and 3],XRPD post storage at 40° C./75% RH,[1]; listed as 9-2,No change by XRPD
same,stability to storage at 40° C./75% RH (in words),[2],stable to storage
same,HPLC purity post storage at 40° C./75% RH,[2]; listed as 9-2,97.7% purity
Cc1cc(Nc2cc(N)ncn2)c(=O)n2c1C(=O)NC21CCC2(CC2)CC1 [MES Pattern 2],XRPD post storage at 40° C./75% RH,[1]; listed as 21-1,"storage, with no observed impact"
same,XRPD post storage at 40° C./75% RH,[1]; listed as 22-6,Unchanged
same,HPLC purity post storage at 40° C./75% RH,[2]; listed as 22-6,99.1%
same,change of chemical purity on storage at 40° C./75% RH (in words),[2]; listed as 21-1,Notable increase in purity after
Cc1cc(Nc2cc(N)ncn2)c(=O)n2c1C(=O)NC21CCC2(CC2)CC1 [Maleate Pattern 1],XRPD post storage at 40° C./75% RH,[1]; listed as 9-7,pattern retained; very
same,stability to storage at 40° C./75% RH (in words),[2]; listed as 9-7,data. Form looks stable
same,XRPD post storage at 40° C./75% RH,[2],consistent with Maleate Pattern 1
same,HPLC purity post storage at 40° C./75% RH,[2]; listed as 9-7,98.8% purity. Maleate
Cc1cc(Nc2cc(N)ncn2)c(=O)n2c1C(=O)NC21CCC2(CC2)CC1 [Pattern 4],XRPD post storage at 40° C./75% RH,[1]; listed as 27-1,Change in form—Pattern 3
same,XRPD post storage at 40° C./75% RH,[2],converted to Pattern 3
Cc1cc(Nc2cc(N)ncn2)c(=O)n2c1C(=O)NC21CCC2(CC2)CC1 [Pattern 6],XRPD (Dry),[3]; listed as 30-4,maintained after mild drying; also recorded: Pattern 6
same,XRPD post storage at 40° C./75% RH,[1]; listed as 30-4,convert to Pattern 3; also recorded: form-Pattern 3
Cc1cc(Nc2cc(N)ncn2)c(=O)n2c1C(=O)NC21CCC2(CC2)CC1 [Pattern 7],XRPD (Dry),[3]; listed as 30-6,Pattern 7
same,XRPD post storage at 40° C./75% RH,[1]; listed as 30-6,7 days: Change in form-Pattern 3
same,stability to storage at 40° C./75% RH (in words),[2]; listed as 30-6,not stable to static storage
Cc1cc(Nc2cc(N)ncn2)c(=O)n2c1C(=O)NC21CCC2(CC2)CC1 [Pattern 8-2],solubility,"[4]; 50 °C, 50 vol, 50° C., read-out: solubilization upon heating to 50° C.",< 20 mg/mL
same,solubility,"[4]; 20 mg in 10 vol of the sample's solvent, read-out: solubilization at 10 vol",< 100 mg/mL
same,solubility,"[4]; 20 vol of the sample's solvent, read-out: solubilization at 20 vol",< 50 mg/mL
same,solubility,"[4]; 30 vol of the sample's solvent, read-out: solubilization at 30 vol",< 33.3 mg/mL
same,solubility,"[4]; 40 vol of the sample's solvent, read-out: solubilization at 40 vol",< 25 mg/mL
same,solubility,"[4]; 50 vol of the sample's solvent, read-out: solubilization at 50 vol",< 20 mg/mL
Cc1cc(Nc2cc(N)ncn2)c(=O)n2c1C(=O)NC21CCC2(CC2)CC1 [Pattern 8],XRPD (Dry),[3],unstable to drying under ambient conditions
same,XRPD post storage at 40° C./75% RH,[1]; listed as 30-15,Pattern 3
Cc1cc(Nc2cc(N)ncn2)c(=O)n2c1C(=O)NC21CCC2(CC2)CC1 [Pattern 9],XRPD (Dry),[3],unstable to drying under ambient conditions
same,form under ambient conditions (XRPD after ambient overnight),[3]; ambient conditions,unstable at ambient conditions
Cc1cc(Nc2cc(N)ncn2)c(=O)n2c1C(=O)NC21CCC2(CC2)CC1 [Phosphate Pattern 1],XRPD post storage at 40° C./75% RH,[1]; listed as 9-8,"pattern retained,"
same,XRPD post storage at 40° C./75% RH,[1]; listed as 22-2,Unchanged
same,stability to storage at 40° C./75% RH (in words),[2],remained stable by XRPD & HPLC
same,stability to storage at 40° C./75% RH (in words),[2]; listed as 9-8,data. Form looks stable
same,XRPD post storage at 40° C./75% RH,[2],consistent with PHO Pattern 1
same,HPLC purity post storage at 40° C./75% RH,[2]; listed as 9-8,98.5% purity. Phosphate
same,HPLC purity post storage at 40° C./75% RH,[2]; listed as 22-2,99.1%
Cc1cc(Nc2cc(N)ncn2)c(=O)n2c1C(=O)NC21CCC2(CC2)CC1 [SUL Pattern 1],XRPD post storage at 40° C./75% RH,[1]; listed as 9-3,SUL Pattern 1
same,change of chemical purity on storage at 40° C./75% RH (in words),[2],decrease in the observed chemical purity
same,stability to storage at 40° C./75% RH (in words),[2],stable to storage
same,HPLC purity post storage at 40° C./75% RH,[2]; listed as 9-3,95.6%
same,change of chemical purity on storage at 40° C./75% RH (in words),[2]; listed as 9-3,"complex thermal data, loss of purity"
Cc1cc(Nc2cc(N)ncn2)c(=O)n2c1C(=O)NC21CCC2(CC2)CC1 [Tartrate Pattern 1],XRPD post storage at 40° C./75% RH,[1]; listed as 9-9,pattern retained.
same,stability to storage at 40° C./75% RH (in words),[2],stable to storage
same,HPLC purity post storage at 40° C./75% RH,[2]; listed as 9-9,98.1% purity. Tartrate
Cc1cc(Nc2cc(N)ncn2)c(=O)n2c1C(=O)NC21CCC2(CC2)CC1 [amorphous material],XRPD post storage at 40° C./75% RH,[1]; listed as 28-1,7 days: Crystallization-Pattern 3 (WD)
same,XRPD post storage at 40° C./75% RH,[2],converted to Free Form Pattern 3
